Tests used:
[1] = biological target: T1, ULK1 kinase (Homo sapiens, UniProt O75385); experiment: Biochemical assay for ULK1.2 (coupled pyruvate kinase/lactate dehydrogenase assay); conditions: 19 nM ULK1 (residues 1-314), myelin basic protein substrate, 1 mM ATP
T1 construct: purchased Eurofins 14-959
T1 sequence (O75385 with tags, fused parts or gaps): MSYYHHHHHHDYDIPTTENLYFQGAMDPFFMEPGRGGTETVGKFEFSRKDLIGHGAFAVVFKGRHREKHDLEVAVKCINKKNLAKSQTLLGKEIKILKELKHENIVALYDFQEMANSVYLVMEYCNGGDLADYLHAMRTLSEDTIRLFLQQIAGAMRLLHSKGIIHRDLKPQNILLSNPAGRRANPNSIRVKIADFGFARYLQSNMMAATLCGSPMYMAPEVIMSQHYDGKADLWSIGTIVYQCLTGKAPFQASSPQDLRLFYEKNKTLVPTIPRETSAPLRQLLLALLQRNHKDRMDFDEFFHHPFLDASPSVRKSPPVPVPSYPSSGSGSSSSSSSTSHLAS
Method: (§1) Activity of ULK1 kinase was determined spectroscopically using a coupled pyruvate kinase/lactate dehydrogenase assay that continuously monitors the ATP hydrolysis-dependent oxidation of NADH (e.g., Schindler et al. Science (2000) 289: 1938-1942). Assays were conducted in 384-well plates (100 uL final volume) using 19 nM ULK1 (Eurofins CAT #14-959), 0.25 mg/mL myelin basic protein, 1.5 units pyruvate kinase, 2.1 units lactate dehydrogenase, 1 mM phosphoenol pyruvate, 0.28 mM NADH and 1 mM ATP in assay buffer (100 mM Tris, pH 7.5, 15 mM MgCl2, 0.5 mM DTT, 0.1% octyl-glucoside, 0.002% (w/v) BSA, and 0.002% Triton X-100). Inhibition of ULK1 was measured by adding serial diluted test compound (final assay concentration of 1% DMSO). A decrease in absorption at 340 nm was monitored continuously for 6 hours at 30° C. on a multi-mode microplate reader (BioTek). The reaction rate was calculated using the 2-3 h time frame. The reaction rate at each concentration of compound was converted to percent inhibition using controls (i.e. reaction with no test compound and reaction with a known inhibitor) and IC50 values were calculated by fitting a four-parameter sigmoidal curve to the data using Prism (GraphPad software).

[2] = system: ULK kinase substrate ATG13 (phospho-Serine 318 ATG13) in A549 cells; experiment: pATG13 ELISA in mutant KRas A549 cells in combination with trametinib; type: cell-based; conditions: A549 (KRAS mutant) human lung cancer cells, with 250 nM trametinib, overnight
Method: A549 (KRAS mutant) human lung cancer cells (6,000 cells/well) were added to a 384-well tissue-culture treated plate in 50 μL of pre-warmed DMEM medium supplemented with 10% characterized fetal bovine serum (Invitrogen, Carlsbad, Calif.), 100 units/mL penicillin G, and 100 μg/mL streptomycin and allowed to grow overnight at 37° C., 5% CO2, and 95% humidity. The following day, 10 μL of media containing trametinib or DMSO as a control was added to wells. The final concentration of trametinib in wells was 250 nM. A dose response of a test compound (0.6 μL per well) was added. DMSO (0.6 μL) was added to control wells. The plate was briefly shaken to mix wells and then incubated at 37° C. overnight. The next day, the media was aspirated and cells were washed with Dulbecco's Phosphate Buffered Saline (Gibco). Cells were lysed using MPER lysis buffer (Pierce, Rockford, Ill.) containing Halt Phosphatase and Protease Inhibitors (Pierce, Rockford, Ill.) and Phosphatase inhibitor cocktail 2 (Sigma, St. Louis, Mo.) at 4° C. for 10 minutes with shaking.
Cellular levels of phospho-Serine 318 ATG13 (pATG13) were measured via an ELISA method. Total ATG13 Antibody (Cell Signaling Cat #13273) was used to coat the wells. The plate was incubated at 4° C. overnight and washed with ELISA wash buffer (Biolegend Cat #421601). The wells were then blocked with assay diluent (Biolegend Cat #421203) for 1 hour at room temperature. Plate wells were washed with ELISA wash buffer. Cell lysate was added to wells and incubated at room temperature for 2 hours. Plate wells were washed with ELISA wash buffer. Biotinylated pS318-ATG13 antibody (Rockland Immunochemicals Cat #600-401-C49) was diluted in assay diluent and added to each well and incubated at room temperature for 1 hour. Plate wells were washed with ELISA wash buffer. Streptavidin linked to horseradish peroxidase (Thermo Fisher Cat #21140) was diluted in assay diluent and added to each well and incubated at room temperature for 1 hour. Plate wells were washed with ELISA wash buffer. High sensitivity TMB substrate (Biolegend Cat #421101) was added to each well and incubated at room temperature for 20 minutes. The reaction was stopped with 2N Sulfuric Acid. The plate was analyzed at on a plate reader measuring absorbance at 450 nm and 540 nm (background). Signal was calculated by first subtracting the background absorbance at 540 nm from the absorbance at 450 nm for each well. Next, the background corrected absorbance at 450 nm from blank wells was subtracted from test wells. Data was compared to control wells to determine % ATG13 phosphorylation. GraphPad Prism was used to calculate IC50 values.

[3] = biological target: T2, LRRK2 kinase (Homo sapiens, UniProt Q5S007); experiment: Biochemical assay for LRRK2 (coupled pyruvate kinase/lactate dehydrogenase assay); conditions: 26.4 nM LRRK2 (residues 970-2528), peptide substrate, 1 mM ATP
T2 construct: (residues 970-2528; ID NO; 4); purchased Thermo Fisher
Method: Activity of LRRK2 kinase was determined spectroscopically using a coupled pyruvate kinase/lactate dehydrogenase assay that continuously monitors the ATP hydrolysis-dependent oxidation of NADH (e.g., Schindler et al. Science (2000) 289: 1938-1942). Assays were conducted in 384-well plates (100 uL final volume) using 26.4 nM LRRK2 (Thermo Fisher), 0.1 mM peptide substrate (RLGRDKYKTLRQIRQ (SEQ ID NO: 6)), 1.5 units pyruvate kinase, 2.1 units lactate dehydrogenase, 1 mM phosphoenol pyruvate, 0.28 mM NADH and 1 mM ATP in assay buffer (100 mM Tris, pH 7.5, 15 mM MgCl2, 0.5 mM DTT, 0.004% (w/v) BSA, and 0.004% Triton X-100). Inhibition of LRRK2 was measured by adding serial diluted test compound (final assay concentration of 1% DMSO). A decrease in absorption at 340 nm was monitored continuously for 6 hours at 30° C. on a multi-mode microplate reader (BioTek). The reaction rate was calculated using the 2-3 h time frame. The reaction rate at each concentration of compound was converted to percent inhibition using controls (i.e. reaction with no test compound and reaction with a known inhibitor) and IC50 values were calculated using software routines in Prism (GraphPad software).

[4] = biological target: T3, ULK2 kinase (Homo sapiens, UniProt Q8IYT8); experiment: Biochemical assay for ULK2 (coupled pyruvate kinase/lactate dehydrogenase assay); conditions: 9.7 nM ULK2 (residues 1-306), myelin basic protein substrate, 1 mM ATP; read-out: ULK2.2
T3 construct: purchased Eurofins 14-772
Method: as §1, with “of ULK2” for “of ULK1”, “using 9.7” for “using 19”, “nM ULK2” for “nM ULK1”, “CAT #14-772),” for “CAT #14-959),”

T3 sequence (Q8IYT8 with tags, fused parts or gaps): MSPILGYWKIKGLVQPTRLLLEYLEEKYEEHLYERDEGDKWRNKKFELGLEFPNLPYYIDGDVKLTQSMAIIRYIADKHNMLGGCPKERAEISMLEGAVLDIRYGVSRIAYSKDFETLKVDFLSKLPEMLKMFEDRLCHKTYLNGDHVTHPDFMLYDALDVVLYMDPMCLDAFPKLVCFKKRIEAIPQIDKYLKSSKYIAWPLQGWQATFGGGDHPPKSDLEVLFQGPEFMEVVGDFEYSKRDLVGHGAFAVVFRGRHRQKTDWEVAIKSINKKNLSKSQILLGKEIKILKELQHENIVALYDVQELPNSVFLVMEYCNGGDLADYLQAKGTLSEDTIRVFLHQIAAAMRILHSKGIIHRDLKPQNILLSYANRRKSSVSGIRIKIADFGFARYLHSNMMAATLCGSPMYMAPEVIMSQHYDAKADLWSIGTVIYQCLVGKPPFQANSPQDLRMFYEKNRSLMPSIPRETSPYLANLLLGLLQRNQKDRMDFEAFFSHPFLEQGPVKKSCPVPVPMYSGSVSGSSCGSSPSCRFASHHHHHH
T2 sequence (Q5S007 with tags, fused parts or gaps): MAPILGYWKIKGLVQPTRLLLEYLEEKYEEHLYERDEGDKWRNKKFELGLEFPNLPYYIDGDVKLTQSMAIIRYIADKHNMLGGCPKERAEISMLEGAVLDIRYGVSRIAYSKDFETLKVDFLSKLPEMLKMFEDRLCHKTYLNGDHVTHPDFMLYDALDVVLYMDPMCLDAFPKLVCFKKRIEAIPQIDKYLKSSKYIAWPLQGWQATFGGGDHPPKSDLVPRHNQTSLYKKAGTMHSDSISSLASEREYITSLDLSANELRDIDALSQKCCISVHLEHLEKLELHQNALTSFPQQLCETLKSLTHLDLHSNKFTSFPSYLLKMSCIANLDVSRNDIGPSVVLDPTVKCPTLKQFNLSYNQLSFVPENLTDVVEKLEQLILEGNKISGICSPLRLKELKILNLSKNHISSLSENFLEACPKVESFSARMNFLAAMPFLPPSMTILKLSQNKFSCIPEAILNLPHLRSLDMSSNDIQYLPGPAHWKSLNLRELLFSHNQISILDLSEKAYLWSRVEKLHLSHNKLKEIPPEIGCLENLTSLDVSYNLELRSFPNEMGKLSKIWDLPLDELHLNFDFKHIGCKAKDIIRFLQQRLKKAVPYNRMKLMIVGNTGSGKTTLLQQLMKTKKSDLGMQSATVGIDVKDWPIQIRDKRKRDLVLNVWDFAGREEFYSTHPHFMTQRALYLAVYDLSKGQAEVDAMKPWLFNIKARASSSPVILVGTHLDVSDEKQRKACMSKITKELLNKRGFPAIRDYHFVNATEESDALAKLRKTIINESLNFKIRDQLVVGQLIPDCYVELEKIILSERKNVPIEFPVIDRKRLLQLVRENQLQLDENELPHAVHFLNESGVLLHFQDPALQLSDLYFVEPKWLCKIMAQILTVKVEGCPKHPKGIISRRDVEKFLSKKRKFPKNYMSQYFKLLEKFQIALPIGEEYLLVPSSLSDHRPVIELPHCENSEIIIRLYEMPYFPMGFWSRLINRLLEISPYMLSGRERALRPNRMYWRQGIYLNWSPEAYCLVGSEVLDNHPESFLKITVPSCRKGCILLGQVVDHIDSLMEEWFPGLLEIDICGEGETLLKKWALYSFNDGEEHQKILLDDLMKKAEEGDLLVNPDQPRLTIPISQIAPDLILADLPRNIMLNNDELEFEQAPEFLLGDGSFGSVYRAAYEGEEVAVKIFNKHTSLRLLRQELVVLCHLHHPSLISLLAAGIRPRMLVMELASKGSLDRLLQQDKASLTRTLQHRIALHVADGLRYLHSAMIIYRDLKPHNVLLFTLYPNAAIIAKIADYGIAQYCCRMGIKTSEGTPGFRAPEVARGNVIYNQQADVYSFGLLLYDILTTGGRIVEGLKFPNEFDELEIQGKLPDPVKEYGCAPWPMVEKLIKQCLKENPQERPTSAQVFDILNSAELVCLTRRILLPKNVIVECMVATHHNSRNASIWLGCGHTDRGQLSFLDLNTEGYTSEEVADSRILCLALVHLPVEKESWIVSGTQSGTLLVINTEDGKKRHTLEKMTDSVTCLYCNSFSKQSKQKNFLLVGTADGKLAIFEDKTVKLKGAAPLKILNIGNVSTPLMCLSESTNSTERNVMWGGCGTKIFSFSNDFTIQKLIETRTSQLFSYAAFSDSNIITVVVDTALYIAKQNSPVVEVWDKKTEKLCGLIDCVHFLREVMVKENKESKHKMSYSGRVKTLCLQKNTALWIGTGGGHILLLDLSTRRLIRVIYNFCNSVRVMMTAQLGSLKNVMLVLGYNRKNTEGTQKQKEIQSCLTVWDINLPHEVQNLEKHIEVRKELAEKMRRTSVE

Row | Structure (SMILES) | IC50 [1] [µM] | IC50 [2] [µM] | IC50 [3] [µM] | IC50 [4] [µM]
1 | Cc1cc(N2CCN(C)CC2)ccc1Nc1ncc(C(F)(F)F)c(NCCCNC(=O)C2CCC2)n1 [Example 2] | 0.001 to 0.025 | 0.1 to 0.3 | 0.001 to 0.1 | –
2 | Cc1cc(N2CCN(C)CC2)ncc1Nc1ncc(C(F)(F)F)c(NCCCNC(=O)C2CCC2)n1 [Example 5] | 0.1 to 0.5 | – | 0.6 to 20 | 0.1 to 0.5
3 | Cc1cc(N2CCOCC2)ncc1Nc1ncc(C(F)(F)F)c(NCCCNC(=O)C2CCC2)n1 [Example 6] | 0.5 to 20 | – | 0.3 to 0.6 | 0.5 to 20
4 | COc1cc(N2CCN(C)CC2)ccc1Nc1ncc(C2CC2)c(NCCCNC(=O)C2CCC2)n1 [Example 11] | 0.5 to 20 | – | 0.6 to 20 | –
5 | Cc1cc(C2CCNCC2)ccc1Nc1ncc(Cl)c(NCCCN(C)C(=O)C2CCC2)n1 [Example 15] | 0.1 to 0.5 | – | 0.001 to 0.1 | –
6 | Cc1cc(C2CCNCC2)ccc1Nc1ncc(C(F)(F)F)c(NCCCN(C)C(=O)C2CCC2)n1 [Example 16] | 0.001 to 0.025 | 0.1 to 0.3 | 0.001 to 0.1 | 0.025 to 0.1
7 | Cc1cc(C2CCN(C)CC2)ccc1Nc1ncc(Cl)c(NCCCN(C)C(=O)C2CCC2)n1 [Example 17] | 0.1 to 0.5 | – | 0.001 to 0.1 | –
8 | Cc1cc(C2CCN(C)CC2)ccc1Nc1ncc(C(F)(F)F)c(NCCCN(C)C(=O)C2CCC2)n1 [Example 18] | 0.001 to 0.025 | – | 0.001 to 0.1 | –
9 | [2H]C([2H])([2H])N1CCC(n2cc(Nc3ncc(C(F)(F)F)c(NCCCNC(=O)C4CCC4)n3)c(C)n2)CC1 [Example 20] | 0.001 to 0.025 | 0.1 to 0.3 | 0.1 to 0.3 | 0.025 to 0.1
10 | Cc1nn(C2CCNCC2)cc1Nc1ncc(C(F)(F)F)c(NCCCNC(=O)C2CCC2)n1 [Example 21, N-(3-((2-((3-methyl-1-(piperidin-4-yl)-1H-pyrazol-4-yl)amino)-5-(trifluoromethyl)pyrimidin-4-yl)amino)propyl)cyclobutanecarboxamide] | 0.001 to 0.025 | 0.1 to 0.3 | 0.001 to 0.1 | 0.025 to 0.1
11 | Cc1nn(C2CCN(C(C)C)CC2)cc1Nc1ncc(C(F)(F)F)c(NCCCNC(=O)C2CCC2)n1 [Example 22, N-(3-((2-((1-(1-isopropylpiperidin-4-yl)-3-methyl-1H-pyrazol-4-yl)amino)-5-(trifluoromethyl)pyrimidin-4-yl)amino)propyl)cyclobutanecarboxamide] | 0.025 to 0.1 | 0.3 to 0.6 | 0.001 to 0.1 | –
12 | Cc1nn(C2CCN(CC(C)C)CC2)cc1Nc1ncc(C(F)(F)F)c(NCCCNC(=O)C2CCC2)n1 [Example 23] | 0.001 to 0.025 | 0.01 to 0.1 | 0.001 to 0.1 | 0.025 to 0.1
13 | Cc1nn(C2CCNCC2)cc1Nc1ncc(C2CC2)c(NCCCNC(=O)C2CCC2)n1 [Example 24] | 0.1 to 0.5 | – | 0.6 to 20 | –
14 | Cc1nn(C2CCN(C)CC2)cc1Nc1ncc(C2CC2)c(NCCCNC(=O)C2CCC2)n1 [Example 25] | 0.1 to 0.5 | – | 0.6 to 20 | –
15 | Cc1nn(C2CCN(C)CC2)cc1Nc1ncc(Cl)c(NCCCN(C)C(=O)C2CCC2)n1 [Example 27] | 0.001 to 0.025 | – | 0.001 to 0.1 | 0.025 to 0.1
16 | [2H]C([2H])([2H])N1CCC(n2cc(Nc3ncc(Br)c(NCCCNC(=O)C4CCC4)n3)c(C)n2)CC1 [Example 29] | 0.025 to 0.1 | – | 0.1 to 0.3 | –
17 | Cc1cc(N2CCN(C)CC2)ncc1Nc1cc(NCCCNC(=O)C2CCC2)c(C(F)(F)F)cn1 [Example 31, N-(3-((2-((4-methyl-6-(4-methylpiperazin-1-yl)pyridin-3-yl)amino)-5-(trifluoromethyl)pyridin-4-yl)amino)propyl)cyclobutanecarboxamide] | 0.1 to 0.5 | – | – | –

Reference: US11590134B2, “Aminopyrimidine amide autophagy inhibitors and methods of use thereof” (Deciphera Pharmaceuticals, LLC, priority 2019, dated 2023)
